Reference: patent US7534871B2, “Preparation and use of carbohydrate-based bicyclic ring structures with antimicrobial and cytostatic activity” (Kemin Pharma B.V.B.A., priority 2004, dated 2009)
≈ marks a conversion by molar mass, not a printed value.

test system: HIV-1 (IIIB); test: microbe, parasite or virus in culture; format: cell-based; conditions: Human immunodeficiency virus 1, IIIB, CCRF-CEM; concentration required to inhibit HIV-induced cytopathicity in human CEM cell cultures by 50%

Compound | EC50
CO[C@@H]1[C@@H](OC)[C@H](c2ccccc2)O[C@@H]2COC(=O)CC/C=C/CCC(=O)O[C@@H]12 [KPE00001018] | > 20 µg/mL

test system: HIV-2 (ROD); test: Anti-viral activity: HIV-2-induced cytopathicity in human CEM cell cultures; format: cell-based; conditions: Human immunodeficiency virus 2, CCRF-CEM; concentration required to inhibit HIV-induced cytopathicity in human CEM cell cultures by 50%

Compound | EC50
CO[C@@H]1[C@@H](OC)[C@H](c2ccccc2)O[C@@H]2COC(=O)CC/C=C/CCC(=O)O[C@@H]12 [KPE00001018] | > 100 µg/mL

test system: HSV-1 (KOS); test: Anti-viral activity: HSV-1-induced cytopathicity in human embryo fibroblast E6SM cell cultures; format: cell-based, herpes simplex virus (HSV); conditions: Human alphaherpesvirus 1, 50%

Compound | EC50
CO[C@@H]1[C@@H](OC)[C@H](c2ccccc2)O[C@@H]2COC(=O)CC/C=C/CCC(=O)O[C@@H]12 [KPE00001018] | > 16 µg/mL

test system: HSV-2 (G); test: Anti-viral activity: HSV-2-induced cytopathicity in human embryo fibroblast E6SM cell cultures; format: cell-based, herpes simplex virus (HSV); conditions: Human alphaherpesvirus 2, 50%

Compound | EC50
CO[C@@H]1[C@@H](OC)[C@H](c2ccccc2)O[C@@H]2COC(=O)CC/C=C/CCC(=O)O[C@@H]12 [KPE00001018] | > 16 µg/mL

test system: VV; test: microbe, parasite or virus in culture; format: cell-based; conditions: Orthopoxvirus vaccinia, E6SM, read-out: EC50 VV (E6SM)

Compound | EC50
CO[C@@H]1[C@@H](OC)[C@H](c2ccccc2)O[C@@H]2COC(=O)CC/C=C/CCC(=O)O[C@@H]12 [KPE00001018] | > 16 µg/mL

test system: VZV OKA; test: microbe, parasite or virus in culture; format: cell-based, varicella zoster virus (VZV); conditions: Human alphaherpesvirus 3, HEL, read-out: EC50 VZV (HEL) OKA

Compound | EC50
CO[C@@H]1[C@@H](OC)[C@H](c2ccccc2)O[C@@H]2COC(=O)CC/C=C/CCC(=O)O[C@@H]12 [KPE00001018] | > 50 µg/mL

test system: VZV YS; test: Anti-viral activity: VZV-induced plaque formation in HEL cell cultures, YS strain; format: cell-based, varicella zoster virus (VZV); conditions: Human alphaherpesvirus 3, VZV-induced plaque formation in human embryonic lung HEL cell cultures, 50%

Compound | EC50
CO[C@@H]1[C@@H](OC)[C@H](c2ccccc2)O[C@@H]2COC(=O)CC/C=C/CCC(=O)O[C@@H]12 [KPE00001018] | > 50 µg/mL

test system: CMV AD-169 strain; test: Anti-CMV activity: plaque reduction in HEL cells, AD-169 strain; format: cell-based, human cytomegalovirus (CMV); conditions: Human betaherpesvirus 5, AD169, HEL; Table 2; reduce virus plaque formation by 50%; virus input 100 PFU; read-out: IC50 CMV AD-169 Strain

Compound | IC50
CO[C@@H]1[C@@H](OC)[C@H](c2ccccc2)O[C@@H]2COC(=O)CC/C=C/CCC(=O)O[C@@H]12 [KPE00001018] | > 20 µg/mL

test system: murine leukemia cells (L1210/0); test: Cytostatic activity: inhibition of proliferation of L1210/0 cells; format: cell-based; conditions: Mus musculus, L1210/0; 50% inhibitory concentration, cell proliferation; read-out: IC50 L1210/0
Procedure: (§1) The compounds were tested for anti-tumor activity via the inhibitory effects on the proliferation of murine leukemia cells (L1210/0), murine mammary carcinoma cells (FM3A), human T-lymphocyte cells (Molt4/C8, CEM/0) and human cervix carcinoma cells (HeLa).

Compound | IC50
CO[C@@H]1[C@@H](OC)[C@H](c2ccccc2)O[C@@H]2COC(=O)CC/C=C/CCC(=O)O[C@@H]12 [KPE00001018] | > 200 µg/mL

test system: murine mammary carcinoma cells (FM3A); test: Cytostatic activity: inhibition of proliferation of FM3A cells; format: cell-based; conditions: Mus musculus, 50% inhibitory concentration, cell proliferation, read-out: IC50 FM3A/0
Procedure: as §1

Compound | IC50
CO[C@@H]1[C@@H](OC)[C@H](c2ccccc2)O[C@@H]2COC(=O)CC/C=C/CCC(=O)O[C@@H]12 [KPE00001018] | > 200 µg/mL

test system: human T-lymphocyte cells (Molt4/C8); test: Cytostatic activity: inhibition of proliferation of Molt4/C8 cells; format: cell-based; conditions: Molt4/C8, 50% inhibitory concentration, cell proliferation, read-out: IC50 Molt4/C8
Procedure: as §1

Compound | IC50
CO[C@@H]1[C@@H](OC)[C@H](c2ccccc2)O[C@@H]2COC(=O)CC/C=C/CCC(=O)O[C@@H]12 [KPE00001018] | > 200 µg/mL

test system: human T-lymphocyte cells (CEM/0); test: Cytostatic activity: inhibition of proliferation of CEM/0 cells; format: cell-based; conditions: CCRF-CEM, 50% inhibitory concentration, cell proliferation, read-out: IC50 CEM/0
Procedure: as §1

Compound | IC50
CO[C@@H]1[C@@H](OC)[C@H](c2ccccc2)O[C@@H]2COC(=O)CC/C=C/CCC(=O)O[C@@H]12 [KPE00001018] | 132 ± 13 µg/mL (≈ 326 µM)

test system: human cervix carcinoma cells (HeLa); test: Cytostatic activity: inhibition of proliferation of HeLa cells; format: cell-based; conditions: 50% inhibitory concentration, cell proliferation
Procedure: as §1

Compound | IC50
CO[C@@H]1[C@@H](OC)[C@H](c2ccccc2)O[C@@H]2COC(=O)CC/C=C/CCC(=O)O[C@@H]12 [KPE00001018] | > 200 µg/mL

test system: E. faecalis ATTC29212 LMG 8222; test: Anti-bacterial activity, Bioscreen C growth curve: E. faecalis; format: cell-based; conditions: Enterococcus faecalis, LMG8222, 35° C., 16 hours, negative control = 100, read-out: % of growth at 25 PPM compared to the negative control, E. faecalis ATTC29212 LMG 8222
Procedure: (§2) For the determination of the anti-bacterial and anti-fungal activity the Bioscreen C Analyser Labsystems, Finland, was used. This is an automated reader-incubator. It measures growth continuously by vertical photometry (optical density), processes the data and provides a print out of the results. The area under the growth curve is automatically determined via the Biolink software.
(§3) The inoculum size of the bacteria is standardized to approximately 5×10^5 CFU/ml.
(§4) For bacteria, the 100-honey-well plates containing test chemical, Mueller-Hinton broth and inoculum (=sample) are incubated at 35° C. for 16 hours. Also wells without inoculum are incubated (=blanco). Yeasts are incubated 35° C. for 24 hours in RPMI 1640+MOPS buffer at 165 mM. Moulds also in RPMI 1640+MOPS buffer at 165 mM are incubated 25° C. for 5 days. All micro-organisms are screened against a known concentration of the reference antibiotics or antimycotics such as vancomycin, penicillin G, gentamicin or amphotericin B. The growth curve and the area under the growth curve can be determined using the Biolink software; this is illustrated in FIG. 1.
(§5) The area of the blanco is subtracted from the area of the sample, this number (delta) gives us an indication of the biological activity of the molecules tested and can be expressed as a % of growth at a specific dose compared to a negative control that has a value of 100, illustrated in FIG. 2. Screening of each dose of a specific compound is repeated 5 times. The dose used for all new molecules in all tests is 25 PPM or 25 μg/ml.
(§6) In Table 4 the results of the anti-bacterial activity is given for the new molecules. The micro-organisms used are Staphylococcus aureus, MRSA, VRE, Enterococcus faecalis, Salmonella typhimurium and Pseudomonas aeruginosa.

Compound | activity at 25 ppm
CO[C@@H]1[C@@H](OC)[C@H](c2ccccc2)O[C@@H]2COC(=O)CC/C=C/CCC(=O)O[C@@H]12 [KPE00001018] | 94.9%

test system: VRE ATCC700221; test: Anti-bacterial activity, Bioscreen C growth curve: VRE; format: cell-based, vancomycin-resistant Enterococcus (VRE); conditions: Enterococcus, 35° C., 16 hours, negative control = 100, read-out: % of growth at 25 PPM compared to the negative control, VRE ATCC700221
Procedure: as §2, §3, §4, §5, §6

Compound | activity at 25 ppm
CO[C@@H]1[C@@H](OC)[C@H](c2ccccc2)O[C@@H]2COC(=O)CC/C=C/CCC(=O)O[C@@H]12 [KPE00001018] | 94.5%

test system: S. aureus ATTC29213 LMG10147; test: Anti-bacterial activity, Bioscreen C growth curve: S. aureus; format: cell-based; conditions: Staphylococcus aureus, 35° C., 16 hours, negative control = 100, read-out: % of growth at 25 PPM compared to the negative control, S. aureus ATTC29213 LMG10147
Procedure: as §2, §3, §4, §5, §6

Compound | activity at 25 ppm
CO[C@@H]1[C@@H](OC)[C@H](c2ccccc2)O[C@@H]2COC(=O)CC/C=C/CCC(=O)O[C@@H]12 [KPE00001018] | 100%

test system: MRSA ATCC33591; test: Anti-bacterial activity, Bioscreen C growth curve: MRSA; format: cell-based, methicillin-resistant Staphylococcus aureus (MRSA); conditions: Staphylococcus aureus, ATCC 33591 / LMG10147 / MRSA; 25 PPM; 35° C., 16 hours; negative control = 100; read-out: % of growth at 25 PPM compared to the negative control, MRSA ATCC33591 LMG10147
Procedure: as §2, §3, §4, §5, §6

Compound | activity at 25 ppm
CO[C@@H]1[C@@H](OC)[C@H](c2ccccc2)O[C@@H]2COC(=O)CC/C=C/CCC(=O)O[C@@H]12 [KPE00001018] | 100%

test system: P. aeruginosa ATCC27853 LMG16217; test: Anti-bacterial activity, Bioscreen C growth curve: P. aeruginosa; format: cell-based, Pseudomonas aeruginosa; conditions: Pseudomonas aeruginosa; 25 PPM; 35° C., 16 hours; negative control = 100; read-out: % of growth at 25 PPM compared to the negative control, P. aeruginosa ATCC27853 LMG16217
Procedure: as §2, §3, §4, §5, §6

Compound | activity at 25 ppm
CO[C@@H]1[C@@H](OC)[C@H](c2ccccc2)O[C@@H]2COC(=O)CC/C=C/CCC(=O)O[C@@H]12 [KPE00001018] | 59.8%

test system: S. typhimurium ATTC700408; test: Anti-bacterial activity, Bioscreen C growth curve: S. typhimurium; format: cell-based; conditions: Salmonella enterica, LMG16217 / TYPHIMURIUM, 35° C., 16 hours, negative control = 100, read-out: % of growth at 25 PPM compared to the negative control, S. typhimurium ATTC700408 LMG16217
Procedure: as §2, §3, §4, §5, §6

Compound | activity at 25 ppm
CO[C@@H]1[C@@H](OC)[C@H](c2ccccc2)O[C@@H]2COC(=O)CC/C=C/CCC(=O)O[C@@H]12 [KPE00001018] | 96.6%

test system: Candida albicans IHEM 10284 - ATCC 24433; test: Anti-fungal activity, Bioscreen C growth curve: Candida albicans (yeast); format: cell-based; conditions: Candida albicans, ATCC24433; 25 PPM; 35° C., 24 hours; negative control = 100; read-out: % of growth at a dose of 25 PPM compared to the negative control, Candida albicans IHEM 10284 - ATCC 24433
Procedure: as §2
The inoculum size of the yeast is standardized to 0.5-2.5×10^3 CFU/ml.
as §4, §5
(§7) In Table 5 the anti-fungal activity is given for the new molecules. The micro-organisms used were Candida albicans (a typical yeast) and Microsporum gypseum (a typical mold).
(§8) Also for the determination of the anti-fungal activity the Bioscreen C Analyser Labsystems Oy, Finland was used. It measures growth continuously by vertical photometry (optical density), processes the data and provides a print out of the results. The area under the growth curve is automatically determined via the Biolink software.
(§9) The inoculum size of the yeast is standardized to 0.5-2.5×10^3 CFU/ml. The inoculum size of the mould is standardized to 0.4-5.0×10^4 CFU/ml. Yeasts are incubated 35° C. for 24 hours in RPMI 1640+MOPS buffer at 165 mM. Moulds also in RPMI 1640+MOPS buffer at 165 mM are incubated 25° C. for 5 days.
(§10) As a control, all micro-organisms are screened against some reference antibiotics with known MIC. Screening of each dose of a specific compound is repeated 5 times.

Compound | activity at 25 ppm
CO[C@@H]1[C@@H](OC)[C@H](c2ccccc2)O[C@@H]2COC(=O)CC/C=C/CCC(=O)O[C@@H]12 [KPE00001018] | 93.5%

test system: Microsporum gypseum IHEM 3999 - ATCC 14683; test: Anti-fungal activity, Bioscreen C growth curve: Microsporum gypseum (mold); format: cell-based; conditions: Nannizzia gypsea, ATCC14683, 120 h; 25 PPM; 25° C., 5 days; negative control = 100; read-out: % of growth at a dose of 25 PPM compared to the negative control, Microsporum gypseum IHEM 3999 - ATCC 14683
Procedure: as §2
The inoculum size of the mould is standardized to 0.4-5.0×10^4 CFU/ml.
as §4, §5, §7, §8, §9, §10

Compound | activity at 25 ppm
CO[C@@H]1[C@@H](OC)[C@H](c2ccccc2)O[C@@H]2COC(=O)CC/C=C/CCC(=O)O[C@@H]12 [KPE00001018] | 79%
